Source: ChEMBL document CHEMBL1139883, “Additional scalarane sesterterpenes from the sponge Phyllospongia papyracea” (J Nat Prod, 2007)
Activity calls are given as the source filed them. The calls are words filed in the database; no cut-off is given here.

These compounds were tested against T1, Catenin beta-1 (Homo sapiens) (UniProt P35222) (assay: Activity against beta […]/Tcf4 complex by PPI assay).
T1 sequence (whole entry): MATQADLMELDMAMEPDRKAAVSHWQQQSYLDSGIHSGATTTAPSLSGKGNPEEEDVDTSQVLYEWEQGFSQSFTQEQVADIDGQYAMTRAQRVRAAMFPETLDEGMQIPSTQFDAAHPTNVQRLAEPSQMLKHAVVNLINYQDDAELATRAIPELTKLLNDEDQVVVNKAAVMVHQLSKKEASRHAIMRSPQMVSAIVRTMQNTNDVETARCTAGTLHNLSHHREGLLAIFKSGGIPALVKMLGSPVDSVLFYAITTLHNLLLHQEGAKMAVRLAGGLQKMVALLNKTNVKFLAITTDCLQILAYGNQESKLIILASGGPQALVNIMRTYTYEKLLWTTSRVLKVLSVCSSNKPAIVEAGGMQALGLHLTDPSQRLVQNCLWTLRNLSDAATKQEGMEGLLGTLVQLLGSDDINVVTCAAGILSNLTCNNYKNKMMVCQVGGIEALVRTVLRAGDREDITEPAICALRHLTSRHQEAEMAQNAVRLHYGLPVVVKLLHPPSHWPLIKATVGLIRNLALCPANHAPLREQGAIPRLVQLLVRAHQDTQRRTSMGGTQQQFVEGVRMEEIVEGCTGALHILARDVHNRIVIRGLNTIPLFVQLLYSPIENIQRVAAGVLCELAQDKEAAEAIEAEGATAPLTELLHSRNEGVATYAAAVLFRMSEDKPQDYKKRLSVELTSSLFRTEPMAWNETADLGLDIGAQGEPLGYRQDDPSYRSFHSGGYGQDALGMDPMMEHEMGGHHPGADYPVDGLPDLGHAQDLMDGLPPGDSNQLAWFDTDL
With `CC[C@@]1(C)CCC[C@]2(C)[C@H]3C[C@H](OC(C)=O)[C@]4(C)[C@@H](O)C(C(C)=O)=CC[C@H]4[C@]3(C)CC[C@@H]12` the Activity was “inactive”.
For `CC[C@@]1(C)CCC[C@]2(C)[C@H]3C[C@H](OC(C)=O)[C@]4(C)C5=C(C(=O)C[C@H]4[C@]3(C)CC[C@@H]12)C(C)OC5=O` (some centres not stated), the Activity was “inactive”.
`CC[C@@]1(C)CCC[C@]2(C)[C@H]3C[C@H](OC(C)=O)[C@]45C[C@H](O)[C@H]4C(C(C)=O)=CC[C@H]5[C@]3(C)CC[C@@H]12` was tested, and the Activity was “inactive”.
`CC[C@@]1(C)CCC[C@]2(C)[C@H]3C[C@H](OC(C)=O)[C@]45C[C@@H](O)[C@H]4C(C(C)=O)=CC[C@H]5[C@]3(C)CC[C@@H]12` was tested, and the Activity was “inactive”.
With `CC[C@@]1(C)CCC[C@]2(C)[C@H]3C[C@H](OC(C)=O)[C@@]4(C)C(=CC(=O)C5=C4C(=O)OC5(C)O)[C@]3(C)CC[C@@H]12` (some centres not stated) the Activity was “inactive”.
`CC[C@@]1(C)CCC[C@]2(C)[C@H]3C[C@H](OC(C)=O)[C@]4(C)[C@@H](C(=O)O)C(C(C)=O)=CC[C@H]4[C@]3(C)CC[C@@H]12` was tested, and the Activity was “inactive”.
`CCC(O)CC(=O)O[C@@H]1C[C@H]2[C@]3(C)CC[C@H]4[C@@](C)(CC)CCC[C@]4(C)[C@H]3C[C@H](OC(C)=O)[C@]2(C)[C@@H](C(=O)O)[C@@H]1C(C)=O` (some centres not stated) was tested, and the Activity was “inactive”.
